Source: patent US20180021275A1, “METHOD OF TREATING IDIOPATHIC PULMONARY FIBROSIS” (MediciNova, Inc., priority 2014, published 2018)

How the values were obtained:
Type in all cases: in vivo, C57BL/6 mice
[1] = tested on: BLM-induced pulmonary fibrosis model mice; assay: CT evaluation of lung density in BLM-induced pulmonary fibrosis model mice; details: for Lung density on day 21: CT, mean ± SD
[2] = tested on: BLM-induced pulmonary fibrosis model mice; assay: Cellular analysis of BALF (total cell number) in BLM-induced pulmonary fibrosis model mice; details: for Total number of cells in BALF: sacrifice day 21, mean ± SD
Experimental: On day 0, twenty mice were intratracheally administered BLM (Nippon Kayaku, Japan) in 0.9% saline in a volume of 50 μL per animal using a Microsprayer® (Penn-Century, USA). MN-001 and vehicle were administered by oral route in a volume of 10 mL/kg. MN-001 was administered at doses of 30, 100, 300 mg/kg once daily. BALF samples were collected by flushing the lung via the trachea with sterile PBS three times (0.8 mL each). The first lavage was kept separate from the other two. BALF was centrifuged at 1,000×g for 3 minutes at 4° C. and the supernatant was collected and stored at −80° C. until use. The cell pellet from the first fraction and the remaining fractions of lavage fluid were pooled. Total cell number of BALF was counted with a hemocytometer.

[3] = tested on: BLM-induced pulmonary fibrosis model mice; assay: Lung hydroxyproline content in BLM-induced pulmonary fibrosis model mice; details: for Lung hydroxyproline contents / Lung Hyp (lung hydroxyproline content): sacrifice day 21, mean ± SD
Experimental: On day 0, twenty mice were intratracheally administered BLM (Nippon Kayaku, Japan) in 0.9% saline in a volume of 50 μL per animal using a Microsprayer® (Penn-Century, USA). MN-001 and vehicle were administered by oral route in a volume of 10 mL/kg. MN-001 was administered at doses of 30, 100, 300 mg/kg once daily. To quantify lung hydroxyproline content, frozen left lung samples (15-25 mg) were processed by an alkaline-acid hydrolysis method as follows. Lung samples were acid-hydrolyzed with 400 μL of 6N HCl at 121° C. for 20 minutes, and neutralized with 400 μL of 4N NaOH containing 10 mg/mL activated carbon. AC buffer (2.2M acetic acid/0.48M citric acid, 400 μL) was added to the samples, followed by centrifugation to collect the supernatant. A standard curve of hydroxyproline was constructed with serial dilutions of trans-4-hydroxy-L-proline (Sigma-Aldrich, USA) starting at 16 μg/mL. The prepared samples and standards (each 400 μL) were mixed with 400 μL chloramine T solution (Wako Pure Chemical Industries Japan) and incubated for 25 minutes at room temperature. The samples were then mixed with Ehrlich's solution (400 μL) and heated at 65° C. for 20 minutes to develop the color. After samples were cooled on ice and centrifuged to remove precipitates, the optical density of each supernatant was measured at 560 nm. The concentrations of hydroxyproline were calculated from the hydroxyproline standard curve. Lung hydroxyproline levels were expressed as […].

[4] = tested on: BLM-induced pulmonary fibrosis model mice; assay: Histopathological analysis (Masson's trichrome staining, Ashcroft score) in BLM-induced pulmonary fibrosis model mice; details: for Ashcroft score: sacrifice day 21, mean ± SD
Experimental: On day 0, twenty mice were intratracheally administered BLM (Nippon Kayaku, Japan) in 0.9% saline in a volume of 50 μL per animal using a Microsprayer® (Penn-Century, USA). MN-001 and vehicle were administered by oral route in a volume of 10 mL/kg. MN-001 was administered at doses of 30, 100, 300 mg/kg once daily. Right lung tissues prefixed in 10% neutral buffered formalin were embedded in paraffin and sectioned at […] sections were stained with Masson's trichrome staining Kit (Sigma, USA) according to the manufacturer's instructions. The degree of pulmonary fibrosis was evaluated using the Ashcroft score (Ashcroft, T., et al., J Clin Pathol, 1988; 41:467-70) for the quantitative histological analysis.

[5] = Body weight changes in BLM-induced pulmonary fibrosis model mice; details: for Body weight changes (%) on the day of sacrifice: percentage of baseline (day 0), mean ± SD
Experimental: Seven-week-old female C57BL/6 mice (17-21 g) were obtained from Japan SLC (Japan). Animals were housed and fed with normal diet (CE-2; CLEA Japan) under conventional conditions. All animals used in this study were cared following appropriate guidelines.
(§1) On day 0, twenty mice were intratracheally administered BLM (Nippon Kayaku, Japan) in 0.9% saline in a volume of 50 μL per animal using a Microsprayer® (Penn-Century, USA).
(§2) MN-001 and vehicle were administered by oral route in a volume of 10 mL/kg.
(§3) MN-001 was administered at doses of 30, 100, 300 mg/kg once daily.
(§4) The viability, clinical signs and behavior were monitored every day. Body weight was recorded daily after the day of starting the BLM administration (day 0). Animals were sacrificed by exsanguination through the abdominal aorta under pentobarbital sodium anesthesia (Kyoritsu, Japan).
Body weight was expressed as percentage body weight change from baseline (day 0).

[6] = tested on: BLM-induced pulmonary fibrosis model mice; assay: Survival analysis in BLM-induced pulmonary fibrosis model mice
Experimental: as §1, §2, §3, §4

[7] = tested on: BLM-induced pulmonary fibrosis model mice; assay: CT evaluation of lung density in BLM-induced pulmonary fibrosis model mice; details: for Lung density on day 0 / Lung density on day 7: CT, mean ± SD; for Lung density on day 0: day 0 (before BLM administration and before treatment); for Lung density on day 7: day 7 after BLM (start of treatment)
Experimental: On day 0, twenty mice were intratracheally administered BLM (Nippon Kayaku, Japan) in 0.9% saline in a volume of 50 μL per animal using a Microsprayer® (Penn-Century, USA). MN-001 and vehicle were administered by oral route in a volume of 10 mL/kg. MN-001 was administered at doses of 30, 100, 300 mg/kg once daily. […] The mice were mounted on a holder and placed in the X-ray CT system (LCT-200, Aloka, Japan) under pentobarbital sodium (Kyoritu Seiyaku, Japan) anesthesia. The images were converted into DICOM format and analyzed with Onis Viewer (DigitalCore, Japan). Two section slides (upper: forth dorsal vertebra, lower: seventh dorsal vertebra) were determined from each scan data set, and eight regions of interest (ROI) were defined in the following areas: the right upper anterior and posterior regions, the left upper anterior and posterior region. The means of the intensity of the eight ROIs were defined as an individual's level of lung density.

[8] = tested on: BLM-induced pulmonary fibrosis in mice; assay: Bleomycin (BLM)-induced pulmonary fibrosis in mice, therapeutic regimen, overall conclusion; details: administered after detecting fibrosis (therapeutic regimen, from day 7 after BLM)
Experimental: As evidenced by Ashcroft score and lung hydroxyproline content, pulmonary fibrosis was established in all BLM-treated mice. […] In the present study, MN-001 was administered at day 7 after BLM administration. Since BLM induced fibrogenic reaction already at day 7, the treatment schedule in the present study is considered to be a “therapeutic regimen”. […] On day 0, twenty mice were intratracheally administered BLM (Nippon Kayaku, Japan) in 0.9% saline in a volume of 50 μL per animal using a Microsprayer® (Penn-Century, USA). MN-001 and vehicle were administered by oral route in a volume of 10 mL/kg. MN-001 was administered at doses of 30, 100, 300 mg/kg once daily.

[9] = MN-001 30 mg/kg oral once daily day 7 to 20, n = 8
[10] = MN-001 100 mg/kg oral once daily day 7 to 20, n = 10
[11] = MN-001 300 mg/kg oral once daily day 7 to 20, n = 10
[12] = MN-001 30 mg/kg oral once daily day 7 to 20
[13] = MN-001 100 mg/kg oral once daily day 7 to 20
[14] = MN-001 300 mg/kg oral once daily day 7 to 20
[15] = MN-001 treatment, all doses, administered from day 7 after BLM
[16] = MN-001 30 mg/kg oral once daily day 7 to 20, n = 8, 30 mg/kg
[17] = MN-001 100 mg/kg oral once daily day 7 to 20, n = 10, 100 mg/kg
[18] = MN-001 300 mg/kg oral once daily day 7 to 20, n = 10, 300 mg/kg

## CCCc1c(SCCCOc2ccc(C(C)=O)c(OCCCC(=O)O)c2CCC)ccc(C(C)=O)c1O [MN-001]
[1]; [9]
  Lung density on day 21: −186 ± 84
[1]; [10]
  Lung density on day 21: −200 ± 122
[1]; [11]
  Lung density on day 21: −260 ± 107
[1]; any of the MN-001 treated groups, statistical comparison
  Lung density on day 0, 7 and 21 compared to the Vehicle group: no significant differences
[2]; [12]
  Total number of cells in BALF: 65.1±26.1 ×10^5 cells
[2]; [13]
  Total number of cells in BALF: 124.4±127.3 ×10^4 cells
[2]; [14]
  Total number of cells in BALF: 76.0±35.0 ×10^5 cells
[2]; any MN-001 treated groups
  Total number of cells in BALF compared to the Vehicle group: no significant differences
[3]; MN-001 30 mg/kg group
  Lung hydroxyproline contents compared to the Vehicle group: significantly decreased
[3]; [12]
  Lung hydroxyproline contents: 49.8±7.9 μg/left lung
[3]; [9]
  Lung Hyp (lung hydroxyproline content): 49.8 ± 7.9 µg/left lung
[3]; MN-001 100 mg/kg group
  Lung hydroxyproline contents compared to the Vehicle group: significantly decreased
[3]; [13]
  Lung hydroxyproline contents: 56.1±10.1 μg/left lung
[3]; [10]
  Lung Hyp (lung hydroxyproline content): 56.1 ± 10.1 µg/left lung
[3]; [14]
  Lung hydroxyproline contents: 56.4±12.7 μg/left lung
[3]; [11]
  Lung Hyp (lung hydroxyproline content): 56.4 ± 12.7 µg/left lung
[3]; MN-001 300 mg/kg treatment
  Lung hydroxyproline content compared to the Vehicle group: tended to decrease
[3]; [15]
  Lung hydroxyproline content compared to the Vehicle group at day 21 (summary): significant reduction or a decreasing trend
[4]; [16]
  Ashcroft score: 2.0±0.7
[4]; MN-001 30 mg/kg treatment
  Ashcroft score compared to the Vehicle group: tended to decrease
[4]; [17]
  Ashcroft score: 2.2±0.8
[4]; MN-001 100 mg/kg treatment
  Ashcroft score compared to the Vehicle group: tended to decrease
[4]; MN-001 300 mg/kg group
  Ashcroft score compared to the Vehicle group: significantly decreased
[4]; [18]
  Ashcroft score: 1.8±0.6
[4]; [15]
  Ashcroft score compared to the Vehicle group at day 21 (summary): significant reduction or a decreasing trend
[5]; [16]
  Body weight changes (%) on the day of sacrifice: 104.8±3.7%
[5]; [17]
  Body weight changes (%) on the day of sacrifice: 100.9±10.6%
[5]; [18]
  Body weight changes (%) on the day of sacrifice: 104.2±4.1%
[5]; MN-001 treated groups (30, 100, 300 mg/kg), Bonferroni multiple comparison test
  Mean body weight loss on the day of sacrifice compared to the Vehicle group: no significant differences
[6]; MN-001 30 mg/kg group, during the treatment period (Vehicle: two out of 10)
  Mice died before reaching day 21: Two out of 10
[6]; MN-001 treated groups (30, 100, 300 mg/kg)
  Survival rate compared to the Vehicle group: no significant differences
[7]; MN-001 30 mg/kg group, n = 8
  Lung density on day 0: −445 ± 17
  Lung density on day 7: −375 ± 77
[7]; MN-001 100 mg/kg group, n = 10
  Lung density on day 0: −444 ± 18
  Lung density on day 7: −343 ± 84
[7]; MN-001 300 mg/kg group, n = 10
  Lung density on day 0: −423 ± 19
  Lung density on day 7: −415 ± 83
[7]; MN-001 treated groups vs Vehicle
  Lung density, visually observed in the graphs (FIGS. 1.1 to 1.3): downward trend
[8]
  Anti-fibrogenic effect: significant anti-fibrogenic effect
